Measurements reported in patent US8648078B2, “PLK inhibitor salts” (Nerviano Medical Sciences S.R.L., priority 2009, dated 2014).

How the values were obtained:
Assay type in all cases: physicochemical
[1] = Hygroscopicity test by Dynamic Vapour Sorption (DVS); details: for Water uptake: 25° C.
Description: The apparatus is a “controlled atmosphere microbalance” where the weighed sample is exposed to programmed variations of the relative humidity (RH) at a constant and controlled temperature. The measured parameters (weight, time and RH), reported in Excel worksheets, allow obtaining hygroscopicity curves over the tested RH range. Sorption/desorption cycles between 0% and 90% RH can be performed at controlled temperature of 25° C. Progressive variations of RH are of 10%; they are operated by the software at the equilibration of the sample weight. This condition can be defined at a constant rate of percent weight variation e.g. 0.005%/min. The experimental results are reported both as in the DVS Isotherm Reports and Isotherm Plots.

[2] = Solid state stability on storage at stressed temperature and humidity; details: storage at 40° C./75% RH
[3] = Solubility of compound 937 in early formulation vehicles / as in situ salt; details: aqueous with cosolvent or surfactant or cyclodextrin; in 10% polysorbate 80 in 5% dextrose solution
[4] = Aqueous solubility of compound 937 salts and free base (excess solid stirred in water, filtered, HPLC); details: thermodynamic from solid, RT, stirred 4 hours, excess solid (target 10 mg/ml)
Source text: The obtained preparations have been filtered and analyzed by means of HPLC.

With `CN1CCN(c2ccc(OC(F)(F)F)c(Nc3ncc4c(n3)-c3c(c(C(N)=O)nn3CCO)CC4)c2)CC1.O=C(O)C(O)C(O)C(=O)O` [compound 937 L-tartrate salt] the “hygroscopicity (in words)” value [1] was “moderately hygroscopic” and the Water uptake ([1]; 90% RH) was ~5.8%.

With `CN1CCN(c2ccc(OC(F)(F)F)c(Nc3ncc4c(n3)-c3c(c(C(N)=O)nn3CCO)CC4)c2)CC1.O=C(O)CCC(=O)O` [compound 937 succinate salt form II] the “solid form stability (in words)” value [2] was “stable”.

In the case of `CN1CCN(c2ccc(OC(F)(F)F)c(Nc3ncc4c(n3)-c3c(c(C(N)=O)nn3CCO)CC4)c2)CC1` [compound 937, 1-(2-hydroxy-ethyl)-8-[5-(4-methyl-piperazin-1-yl)-2-trifluoromethoxy-phenylamino]-4,5-dihydro-1H-pyrazolo[4,3-h]quinazoline-3-carboxamide], the solubility [3] was ~4 mg/mL and the solubility at 4 h [4] was < 0.1 mg/mL.

For `CN1CCN(c2ccc(OC(F)(F)F)c(Nc3ncc4c(n3)-c3c(c(C(N)=O)nn3CCO)CC4)c2)CC1.O=C(O)/C=C\C(=O)O` [compound 937 maleate salt form II], the “hygroscopicity (in words)” value [1] was “moderately hygroscopic” and the “solid form stability (in words)” value [2] was “undergoes conversion to form I”.

Work on `CN1CCN(c2ccc(OC(F)(F)F)c(Nc3ncc4c(n3)-c3c(c(C(N)=O)nn3CCO)CC4)c2)CC1.O=C(O)/C=C/C(=O)O` [compound 937 fumarate salt] yielded a Water uptake ([1]; 90% RH) of 1.6%, a Water uptake ([1]; DVS sorption ramp, 0.0% RH) of 0.0% and a Water uptake ([1]; DVS sorption ramp, 10.0% RH) of 0.1%. The Water uptake ([1]; DVS sorption ramp, 20.0% RH) was 0.3%, the Water uptake ([1]; DVS sorption ramp, 30.0% RH) was 0.4% and the Water uptake ([1]; DVS sorption ramp, 40.0% RH) was 0.6%. The Water uptake ([1]; DVS sorption ramp, 50.0% RH) was 0.9%, the Water uptake ([1]; DVS sorption ramp, 60.0% RH) was 1.2% and the Water uptake ([1]; DVS sorption ramp, 70.0% RH) was 1.4%. It also gave a Water uptake ([1]; DVS sorption ramp, 80.0% RH) of 1.5%.

In the case of `CN1CCN(c2ccc(OC(F)(F)F)c(Nc3ncc4c(n3)-c3c(c(C(N)=O)nn3CCO)CC4)c2)CC1.O=C(O)C[C@H](O)C(=O)O` [compound 937 L-malate salt], the “hygroscopicity (in words)” value [1] was “moderately hygroscopic” and the Water uptake ([1]; 90% RH) was “about 4.7%”.
